In patent publication US20230126893A1, “[(1,4,5-TRISUBSTITUTED-1H-PYRAZOL-3-YL)SULFANYL]ACETIC ACID DERIVATIVES, SALTS THEREOF, AND USE THEREOF AS ACTIVE HERBICIDAL INGREDIENTS” (BAYER AKTIENGESELLSCHAFT, priority 2020, published 2023):

How the values were obtained:
Type in all cases: in vivo
[1] = test system: Alopecurus myosuroides; test: Pre-emergence herbicidal effect against ALOMY; conditions: 1280 g/ha, visual score after 3 weeks, 100% = plants have died, 0% = like control plants
Source text: (§1) 1. Pre-emergence herbicidal effect and crop plant compatibility Seeds of monocotyledonous and dicotyledonous weed plants and crop plants are laid out in sandy loam soil in wood-fibre pots and covered with soil. The compounds of the invention, formulated in the form of wettable powders (WP) or as emulsion concentrates (EC), are then applied to the surface of the covering soil as aqueous suspension or emulsion at a water application rate equating to 600 to 800 L/ha with addition of 0.2% wetting agent. After the treatment, the pots are placed in a greenhouse and kept under good growth conditions for the trial plants. The damage to the test plants is scored visually after a test period of 3 weeks by comparison with untreated controls (herbicidal activity in percent (%): 100% activity=the plants have died, 0% activity=like control plants). [table]

[2] = test system: Digitaria sanguinalis; test: Pre-emergence herbicidal effect against DIGSA; conditions: 1280 g/ha, visual score after 3 weeks, 100% = plants have died, 0% = like control plants
Source text: as §1

[3] = test system: Echinochloa crus-galli; test: Pre-emergence herbicidal effect against ECHCG; conditions: 1280 g/ha, visual score after 3 weeks, 100% = plants have died, 0% = like control plants
Source text: as §1

[4] = test system: Lolium rigidum; test: Pre-emergence herbicidal effect against LOLRI; conditions: 1280 g/ha, visual score after 3 weeks, 100% = plants have died, 0% = like control plants
Source text: as §1

[5] = test system: Poa annua; test: Pre-emergence herbicidal effect against POAAN; conditions: 1280 g/ha, visual score after 3 weeks, 100% = plants have died, 0% = like control plants
Source text: as §1

[6] = test system: Setaria viridis; test: Pre-emergence herbicidal effect against SETVI; conditions: 1280 g/ha, visual score after 3 weeks, 100% = plants have died, 0% = like control plants
Source text: as §1

[7] = test system: Amaranthus retroflexus; test: Pre-emergence herbicidal effect against AMARE; conditions: 1280 g/ha, visual score after 3 weeks, 100% = plants have died, 0% = like control plants
Source text: as §1

[8] = test system: Tripleurospermum inodorum; test: Pre-emergence herbicidal effect against MATIN; conditions: 1280 g/ha, visual score after 3 weeks, 100% = plants have died, 0% = like control plants
Source text: as §1

[9] = test system: Stellaria media; test: Pre-emergence herbicidal effect against STEME; conditions: 1280 g/ha, visual score after 3 weeks, 100% = plants have died, 0% = like control plants
Source text: as §1

[10] = test system: Veronica persica; test: Pre-emergence herbicidal effect against VERPE; conditions: 1280 g/ha, visual score after 3 weeks, 100% = plants have died, 0% = like control plants
Source text: as §1

[11] = test system: Alopecurus myosuroides; test: Post-emergence herbicidal effect against ALOMY; conditions: 1280 g/ha, visual score after about 3 weeks, 100% = plants have died, 0% = like control plants
Procedure: (§2) [table] 2. Post-emergence herbicidal effect and crop plant compatibility Seeds of monocotyledonous and dicotyledonous weed and crop plants are laid out in sandy loam soil in wood-fibre pots, covered with soil and cultivated in a greenhouse under good growth conditions. 2 to 3 weeks after sowing, the test plants are treated at the one-leaf stage. The compounds of the invention, formulated in the form of wettable powders (WP) or as emulsion concentrates (EC), are then sprayed onto the green parts of the plants as aqueous suspension or emulsion at a water application rate equating to 600 to 800 l/ha with addition of 0.2% wetting agent. After the test plants have been left to stand in the greenhouse under optimal growth conditions for about 3 weeks, the action of the preparations is assessed visually in comparison to untreated controls (herbicidal action in percent (%): 100% activity=the plants have died, 0% activity=like control plants).

[12] = test system: Digitaria sanguinalis; test: Post-emergence herbicidal effect against DIGSA; conditions: 1280 g/ha, visual score after about 3 weeks, 100% = plants have died, 0% = like control plants
Procedure: as §2

[13] = test system: Poa annua; test: Post-emergence herbicidal effect against POAAN; conditions: 1280 g/ha, visual assessment about 3 weeks after treatment, 100% = plants have died, 0% = like control plants
Procedure: as §2

[14] = test system: Amaranthus retroflexus; test: Post-emergence herbicidal effect against AMARE; conditions: 1280 g/ha, visual assessment about 3 weeks after treatment, 100% = plants have died, 0% = like control plants
Procedure: as §2

[15] = test system: Bassia scoparia; test: Post-emergence herbicidal effect against KCHSC; conditions: 1280 g/ha, visual assessment about 3 weeks after treatment, 100% = plants have died, 0% = like control plants
Procedure: as §2

[16] = test system: Tripleurospermum inodorum; test: Post-emergence herbicidal effect against MATIN; conditions: 1280 g/ha, visual assessment about 3 weeks after treatment, 100% = plants have died, 0% = like control plants
Procedure: as §2

[17] = test system: Stellaria media; test: Post-emergence herbicidal effect against STEME; conditions: 1280 g/ha, visual assessment about 3 weeks after treatment, 100% = plants have died, 0% = like control plants
Procedure: as §2

[18] = test system: Veronica persica; test: Post-emergence herbicidal effect against VERPE; conditions: 1280 g/ha, visual assessment about 3 weeks after treatment, 100% = plants have died, 0% = like control plants
Procedure: as §2

[19] = test system: Abutylon threophrasti; test: Post-emergence herbicidal effect against ABUTH; conditions: 1280 g/ha, visual assessment about 3 weeks after treatment, 100% = plants have died, 0% = like control plants
Procedure: as §2

[20] = test system: Echinochloa crus-galli; test: Post-emergence herbicidal effect against ECHCG; conditions: 1280 g/ha, visual score after about 3 weeks, 100% = plants have died, 0% = like control plants
Procedure: as §2

O=C(O)CSc1nn(-c2cccc(F)c2F)c(-c2ccccc2)c1Br [Example I-006]
Pre-emergence action against ALOMY [1]: 90% | Pre-emergence action against DIGSA [2]: 100% | Pre-emergence action against ECHCG [3]: 90% | Pre-emergence action against LOLRI [4]: 90% | Pre-emergence action against POAAN [5]: 100% | Pre-emergence action against SETVI [6]: 100% | Pre-emergence action against AMARE [7]: 100% | Pre-emergence action against MATIN [8]: 100% | Pre-emergence action against STEME [9]: 90% | Pre-emergence action against VERPE [10]: 100% | Post-emergence action against ALOMY [11]: 100% | Post-emergence action against DIGSA [12]: 100% | Post-emergence action against POAAN [13]: 100% | Post-emergence action against AMARE [14]: 100% | Post-emergence action against KCHSC [15]: 90% | Post-emergence action against MATIN [16]: 100% | Post-emergence action against STEME [17]: 100% | Post-emergence action against VERPE [18]: 90%

O=C(O)CSc1nn(-c2ccccc2F)c(-c2ccc(F)c(F)c2)c1Br [Example I-005, {[4-Bromo-5-(3,4-difluorophenyl)-1-(2-fluorophenyl)-1H-pyrazol-3-yl]sulfanyl}acetic acid]
Pre-emergence action against ALOMY [1]: 90% | Pre-emergence action against DIGSA [2]: 100% | Pre-emergence action against LOLRI [4]: 100% | Pre-emergence action against POAAN [5]: 100% | Pre-emergence action against SETVI [6]: 100% | Pre-emergence action against AMARE [7]: 100% | Pre-emergence action against MATIN [8]: 100% | Pre-emergence action against STEME [9]: 100% | Pre-emergence action against VERPE [10]: 100% | Post-emergence action against ALOMY [11]: 100% | Post-emergence action against DIGSA [12]: 100% | Post-emergence action against AMARE [14]: 90% | Post-emergence action against MATIN [16]: 100% | Post-emergence action against STEME [17]: 100% | Post-emergence action against VERPE [18]: 90%

CCOC(=O)CSc1nn(-c2ccccc2F)c(-c2cnccn2)c1Br [VI-001]
Pre-emergence action against DIGSA [2]: 90% | Pre-emergence action against POAAN [5]: 100% | Pre-emergence action against MATIN [8]: 90% | Pre-emergence action against STEME [9]: 90% | Post-emergence action against ALOMY [11]: 90% | Post-emergence action against POAAN [13]: 100% | Post-emergence action against ABUTH [19]: 90% | Post-emergence action against AMARE [14]: 90% | Post-emergence action against MATIN [16]: 100% | Post-emergence action against VERPE [18]: 90%

CCOC(=O)C[S+]([O-])c1nn(-c2cccc(F)c2F)c(-c2ccccc2)c1Br (centres unmarked) [Example I-010]
Pre-emergence action against ALOMY [1]: 100% | Pre-emergence action against DIGSA [2]: 100% | Pre-emergence action against ECHCG [3]: 100% | Pre-emergence action against LOLRI [4]: 100% | Pre-emergence action against POAAN [5]: 100% | Pre-emergence action against SETVI [6]: 100% | Pre-emergence action against AMARE [7]: 100% | Pre-emergence action against MATIN [8]: 100% | Pre-emergence action against STEME [9]: 100% | Pre-emergence action against VERPE [10]: 100% | Post-emergence action against ALOMY [11]: 100% | Post-emergence action against DIGSA [12]: 90% | Post-emergence action against ECHCG [20]: 100% | Post-emergence action against POAAN [13]: 100% | Post-emergence action against ABUTH [19]: 90% | Post-emergence action against AMARE [14]: 90% | Post-emergence action against KCHSC [15]: 90% | Post-emergence action against MATIN [16]: 100% | Post-emergence action against STEME [17]: 90% | Post-emergence action against VERPE [18]: 90%

O=C(O)CSc1nn(-c2ccccc2F)c(-c2cc(F)cc(Cl)c2)c1Br [Example I-009]
Pre-emergence action against ALOMY [1]: 90% | Pre-emergence action against DIGSA [2]: 100% | Pre-emergence action against ECHCG [3]: 90% | Pre-emergence action against LOLRI [4]: 100% | Pre-emergence action against POAAN [5]: 100% | Pre-emergence action against SETVI [6]: 100% | Pre-emergence action against AMARE [7]: 100% | Pre-emergence action against MATIN [8]: 100% | Pre-emergence action against STEME [9]: 100% | Pre-emergence action against VERPE [10]: 90% | Post-emergence action against POAAN [13]: 100% | Post-emergence action against ABUTH [19]: 90% | Post-emergence action against AMARE [14]: 100% | Post-emergence action against KCHSC [15]: 100% | Post-emergence action against MATIN [16]: 100% | Post-emergence action against STEME [17]: 100% | Post-emergence action against VERPE [18]: 90%
